{"source": "patent US20260102413A1", "about": "“TREATING PAIN ASSOCIATED WITH CENTRAL SENSITIZATION” (Medicon Pharmaceuticals, Inc., priority 2022, published 2026)", "key": {"[1]": {"tested_on": "mice with NTG-induced migraine", "test": "von Frey PWT, NTG-induced migraine model, oral or intraperitoneal compounds", "assay_type": "in vivo, mouse", "conditions": "mouse, in vivo", "method": "Phosphonaproxen (Formula VIII), and its parent compound, naproxen, were administered orally to each mouse group. All compounds were administered at equimolar doses. In particular, phosponaproxen was administered at 65 mg/kg, and naproxen was administered at 35 mg/kg, 30 minutes after NTG administration. The response of mechanical allodynia was tested 30 minutes after administration."}, "in vivo": {"test": "in vivo", "conditions": "Sprague-Dawley, rat, po, 95 mg/kg; for AUC(0-t): AUC0-24 h; for AUC(0-t) / Cmax / Tmax: single oral dose PN 95 mg/kg, rats", "method": "Approximately 800 μL of blood were collected through cardiac puncture and immediately centrifuged.\nTissue samples were harvested using separate dissection instruments for each tissue sample to avoid cross contamination, and snap frozen. The levels of the test drug were determined by HPLC.\nAs previously described (Wen et al, 2019), each plasma sample was mixed with double volume of acetonitrile and centrifuged at 13,200 rpm for 15 min. Tissue samples were weighed, ddH2O (100-300 μL, depending on tissue weight) was added, and they were homogenized. Following addition of acetonitrile (twice the volume of the homogenate), the mixture was sonicated for 10 min, centrifuged at 13,200 rpm for 15 min, and analyzed by HPLC, as reported (Wen et al, 2019).\nIt was performed following a previously reported method (Xie et al, 2012). Briefly, the HPLC system consisted of a Waters Alliance 2695 Separations Module (Milford, MA, USA) equipped with a Waters 2998 photodiode array detector (328 nm) and a Thermo Hypersil BDS C18 column (150×4.6 mm, particle size 3 μm). The mobile phase consisted of a gradient between solvent A (formic acid, CH3CN, H2O (0.1:4.9:95 v/v/v)) and solvent B (CH3CN) at a flow rate of 1 mL·min−1 at 30° C. We applied gradient elution from 30 to 100% solvent B from 0-6 min, and it was maintained at 100% solvent B until 8 min.\nThe methods are identical to those used in Example 27.\nA single dose of PN or PSA was given by oral gavage to groups of three Sprague-Dawley rats, which were euthanized and dissected according to the early example. The oral gavage solution of phosphonaproxen was prepared by dissolving in 10% DMSO and then suspending it in corn oil."}, "[2]": {"tested_on": "mice with chronic constriction injury of the left sciatic nerve (PTPN)", "test": "von Frey PWT, chronic constriction injury (CCI) model of PTPN, topical compounds", "assay_type": "in vivo, mouse", "conditions": "PI, PN 5% on left hind paw 3x/day 14 days; day 14", "method": "The PWT test was performed following ligation, but prior to treatment to determine baseline values. The PWT was then further measured on day 14."}, "[3]": {"tested_on": "mice with paclitaxel-induced CIPN", "test": "von Frey PWT, paclitaxel CIPN model, orally administered compounds", "assay_type": "in vivo, mouse", "conditions": "mouse, in vivo", "source_text": "CIPN was induced in mice with chemotherapeutic agents using established protocols (Carozzi et al, 2010; Currie et al, 2019; Eldridge et al, 2020). […] This dosing regimen of paclitaxel produces pain associated with CIPN with time courses that are similar to those of pain after paclitaxel administration in cancer patients.\nGroup 1: naïve mice (i.e. no paclitaxel, n=8) • 2. Group 2: paclitaxel only (n=8) • 3. Group 3: paclitaxel plus vehicle (n=8) • 4. […] Group 5: paclitaxel pluse sulindac (n=8)\nThe PWT test was performed on day 7.\nPhospho-naproxen (PN) and naproxen were given by oral gavage, three times a day for 7 days. Their doses were as follows: PN, 65 mg/kg; naproxen, 35 mg/kg (equimolar to PN). The response of mechanical allodynia to phospho-naproxen (PN) and naproxen was tested on day 7.\n(§1) This dosing regimen of paclitaxel produces pain associated with CIPN with time courses that are similar to those of pain after paclitaxel administration in cancer patients.\nPhospho-ibuprofen (PI) (Formula III), phospho-glycerol-ibuprofen (PGI) (Formula LXXI), phospho-ibuprofen-amide (PIA) (Formula XI), and ibuprofen were given by oral gavage, three times a day for 6 days. Their doses were as follows: ibuprofen, 40 mg/kg; PI, 80 mg/kg; PIA, 80 mg/kg; all three were equimolar.\nThe response of mechanical allodynia to these compounds was tested on day 6, using the PWT test.\nas §1\nNO-sulindac (Formula XLIV), HS-sulindac (Formula XXXIV), platinum-sulindac (Formula LXVII), and NOSH-1 (Formula LIX) were given by oral gavage, three times a day throughout the study period. Their doses were all 100 mg/kg.\nThe response of mechanical allodynia to these compounds was tested on the days set out in the table below, via the PWT test.\nLXIX was given by oral gavage, once a day for 14 days at a dose of 100 mg/kg.\nThe response of mechanical allodynia to these compounds was tested on day 14, via the PWT test."}, "[4]": {"tested_on": "mice with paclitaxel-induced neuropathic pain (CIPN)", "test": "von Frey paw withdrawal threshold (mechanical allodynia), paclitaxel-induced CIPN / central sensitization, treatment of established pain, topical test compounds", "assay_type": "in vivo, mouse", "method": "Paw withdrawn, licking or shaking were considered positive responses.\n(§2) The first doses were administered 5 days after the last administration of paclitaxel (i.e., at day 0).\nThe PWT test was performed prior to the administration of paclitaxel (day −8) to establish the threshold in mice without neuropathic pain associated with CIPN (the value shown is an average of the PWT in all groups at day −8).\nPain associated with CIPN was established in line with the experiments disclosed herein. Mice were treated with naproxen 2.4% (equimolar to PN 5%), aspirin 1.7% (equimolar to PA2 5%); or ibuprofen 2.5% (equimolar to PI 5%) or vehicle applied topically to both hind paws 3×/day for 14 days.\nCIPN was induced in mice with chemotherapeutic agents using established protocols (Carozzi et al, 2010; Currie et al, 2019; Eldridge et al, 2020).\nThe first doses were administered 1 day after the last administration of paclitaxel (i.e., at day 0).\nas §2\nThe PWT test was performed on day 21, at the end of the experiment, but was also additionally determined on day 14 for LXIX."}}, "data": [{"smiles": "CCOP(=O)(OCC)OCCCCOC(=O)C(C)c1ccc2cc(OC)ccc2c1", "note": "(stereo not shown) [PN, phospho-naproxen]", "values": [{"measurement": "PWT, g Mean ± SEM", "setting": "[1]", "result": "1.48 ± 0.22", "unit": "g"}, {"measurement": "hydrolysis by carboxylesterases, times slower than PS", "setting": "carboxylesterases", "result": "about 5 times"}, {"measurement": "half-life", "setting": "in vivo", "result": 540, "unit": "min"}, {"measurement": "AUC(0-t)", "setting": "in vivo; blood", "result": 1.7, "unit": "µM·h"}, {"measurement": "AUC(0-t)", "setting": "in vivo; cerebellum", "result": 3.1, "unit": "µM·h"}, {"measurement": "AUC(0-t)", "setting": "in vivo; medulla", "result": 6.9, "unit": "µM·h"}, {"measurement": "AUC(0-t)", "setting": "in vivo; stomach", "result": 4340, "unit": "µM·h"}, {"measurement": "AUC(0-t)", "setting": "in vivo; vagus nerve", "result": 63.1, "unit": "µM·h"}, {"measurement": "Cmax", "setting": "in vivo; blood", "result": "3.5 ± 1.2", "unit": "µM"}, {"measurement": "Cmax", "setting": "in vivo; cerebellum", "result": "1.2 ± 0.02", "unit": "µM"}, {"measurement": "Cmax", "setting": "in vivo; medulla", "result": "3.1 ± 0.6", "unit": "µM"}, {"measurement": "Cmax", "setting": "in vivo; stomach", "result": "717.2 ± 5", "unit": "µM"}, {"measurement": "Cmax", "setting": "in vivo; vagus nerve", "result": "24.2 ± 3.1", "unit": "µM"}, {"measurement": "Tmax", "setting": "in vivo; blood", "result": 60, "unit": "min"}, {"measurement": "Tmax", "setting": "in vivo; cerebellum", "result": 30, "unit": "min"}, {"measurement": "Tmax", "setting": "in vivo; medulla", "result": 30, "unit": "min"}, {"measurement": "Tmax", "setting": "in vivo; stomach", "result": 60, "unit": "min"}, {"measurement": "Tmax", "setting": "in vivo; vagus nerve", "result": 30, "unit": "min"}, {"measurement": "PWT, g Mean ± SEM", "setting": "[2]", "result": "1.70 ± 0.12", "unit": "g"}, {"measurement": "PWT, g Mean ± SEM", "setting": "[3]", "result": "0.66 ± 0.03", "unit": "g"}, {"measurement": "Paw-withdrawal threshold, g Mean ± SEM, Day 0", "setting": "[4]; group value after paclitaxel, before study drug", "result": "0.64 ± 0.06", "unit": "g"}, {"measurement": "Paw-withdrawal threshold, g Mean ± SEM, Day 14", "setting": "[4]; mouse, in vivo", "result": "1.19 ± 0.09", "unit": "g"}]}]}
